Among the data in ChEMBL document CHEMBL5727547, “Sodium channel modulators” (2020) are IC50 values, retold here.

Experiment [1] in a line: (§1) Automated patch clamp (Inactivation State Block): Test Protocol for Determining the Potency of Compounds on Nav1.2 and Nav1.6 Subtypes of Voltage-Gated Sodium Ion Channels Expressed in Mammalian CellsCell culture procedures: Chinese hamster ovary (CHO) cells were stably transfected with the cDNA sequence of either the human SCN2A or SCN8A genes to create hNav1.2 or hNav1.6 cells respectively. The cell lines were cultured in Ham's F-12 medium supplemented with 10% fetal bovine serum and antibiotics in a tissue incubator at 37° C. under a humidified air/CO2 mixture (95/5 v/v). On the day of the experiment, cells were washed twice with Hank's balanced salt solution, treated with trypsin, and resuspended in fresh culture media at a density of 4−6×10^6 cells in 20 ml. Immediately before placing in the IonWorks Quattro instrument, cells were washed in Hank's balanced salt solution to remove culture medium and re-suspended in 3 ml of Hank's balanced salt solution. Automated patch clamp recordings of cells using the IonWorks Quattro Instrument: The assay used a 384 microwell plate, which enabled 20 compounds to be studied at four different concentrations in quadruplicate as well as allowing a vehicle control group and a positive control group using mexiletine at 8 different concentrations. Cells were added to the wells of the Population Patch Clamp planar electrode using a 48-channel pipettor in a volume of 6 μL, per well. After 5 minutes incubation at ambient temperature with compounds or vehicle, membrane currents were recorded using the patch clamp amplifier. The pulse pattern was repeated twice, before and after compound addition and peak current amplitudes were measured at TP12 to measure Inactivation State Block. Data analysis: Data acquisition and analyses were carried out using the IonWorks Quattro system operation software which uses an algorithm to correct data for leak currents. Concentration-response curves were fitted by non-linear least squares regression allowing calculation of an IC50 value (μM), being the concentration of the compound producing half-maximal inhibition.

The nature of experiment [2]: as §1, with “(Tonic” for “(Inactivation State”, “TP11” for “TP12”, “10 Hz Frequency-dependent” for “Inactivation State”.
Experiment [3] can be described thus: Automated patch clamp (Tonic Block): Test Protocol for Determining the Potency of Compounds on Nav1.2 and Nav1.6 Subtypes of Voltage-Gated Sodium Ion Channels Expressed in Mammalian CellsCell culture procedures: Chinese hamster ovary (CHO) cells were stably transfected with the cDNA sequence of either the human SCN2A or SCN8A genes to create hNav1.2 or hNav1.6 cells respectively. The cell lines were cultured in Ham's F-12 medium supplemented with 10% fetal bovine serum and antibiotics in a tissue incubator at 37° C. under a humidified air/CO2 mixture (95/5 v/v). On the day of the experiment, cells were washed twice with Hank's balanced salt solution, treated with trypsin, and resuspended in fresh culture media at a density of 4−6×10^6 cells in 20 ml. Immediately before placing in the IonWorks Quattro instrument, cells were washed in Hank's balanced salt solution to remove culture medium and re-suspended in 3 ml of Hank's balanced salt solution. Automated patch clamp recordings of cells using the IonWorks Quattro Instrument: The assay used a 384 microwell plate, which enabled 20 compounds to be studied at four different concentrations in quadruplicate as well as allowing a vehicle control group and a positive control group using mexiletine at 8 different concentrations. […].

As usually defined, the IC50 is the point on the concentration scale where inhibition reaches its midpoint. As to `Cc1n[nH]c(C)c1OCCCNCc1cccc(-c2cncnc2)c1`, the concentration for half-maximal inhibition (IC50) in experiment [1] and in experiment [2] was over 10 µM each time.

As for `Cc1cccc(C)c1OCCCNCc1cc(C(C)(C)C)cc(C(C)(C)C)c1`, the 50% inhibitory concentration (IC50) in experiment [1] and in experiment [2] was over 10 µM in each case.

`Cc1cccc(C)c1OCCCNCc1cccc(C#N)c1`: the half-maximal inhibitory concentration (IC50) in experiment [1] and in experiment [2] was 2 µM in each case.

With `Cc1n[nH]c(C)c1OCCCNC(c1ccccn1)c1ccccn1`, the IC50 in experiment [1] and in experiment [2] was over 10 µM each time.

Consider `Cc1cccc(C)c1OCCCNCc1ccc(-c2ccccc2)cc1`, for which the IC50 in experiment [1] and in experiment [2] was over 1000 µM throughout.

As for `Cc1cccc(C)c1OCCCNC(c1ccccn1)c1ccccn1`, the IC50 in experiment [1] is 0.1 µM.

In the case of `Cc1nn(C)c(C)c1OCCCNC(c1ccccn1)c1ccccn1`, the half-maximal inhibitory concentration (IC50) in experiment [1] and in experiment [2] was over 10 µM in each case.

Take `Cc1nn(C)c(C)c1OCCCNCc1cccc(-c2cncnc2)c1`: the IC50 in experiment [1] and in experiment [2] was over 10 µM each time.

For the molecule `Cc1cccc(C)c1OCCCNCc1cccc(C(F)(F)F)c1`, the IC50 in experiment [1], in experiment [2] and in experiment [3] was over 10 µM throughout.
